Row | melting point | SMILES
1 | 130 to 131 °C | COc1c(C)cc(C2=C(c3ccc(S(C)(=O)=O)cc3)OC(C)(C)C2=O)cc1C [Example 12, 2,2-Dimethyl-4-(3,5-dimethyl-4-methoxyphenyl)-5-{4-(methylsulfonyl)phenyl}-3(2H)-furanone]
2 | 198 to 203 °C | CCS(=O)(=O)c1ccc(C2=C(c3ccc(S(C)(=O)=O)cc3)OC(C)(C)C2=O)cc1 [Example 110, 2,2-Dimethyl-4-{4-(ethylsulfonyl)phenyl}-5-{4-(methylsulfonyl)phenyl}-3(2H)-furanone]
3 | 126 to 130 °C | CC(=O)c1ccc(C2=C(c3ccc(S(C)(=O)=O)cc3)OC3(CCCC3)C2=O)cc1 [Example 55, 3-(4-Acetylphenyl)-2-{4-(methylsulfonyl)phenyl}-1-oxa-spiro[4,4]non-2-en-4-one]
4 | 173 to 174 °C | CC1(C)OC(c2ccc(S(C)(=O)=O)c(F)c2)=C(c2ccc([N+](=O)[O-])cc2)C1=O [Example 287, 2,2-dimethyl-4-(4-nitrophenyl)-5-{3-fluoro-4-(methylsulfonyl)-phenyl}-3(2H)-furanone]
5 | 135 to 136 °C | C[S+]([O-])c1ccc(C2=C(c3ccccc3)C(=O)C(C)(C)O2)c(Cl)c1 (stereo not drawn) [Example 391, 5-{2-Chloro-4-(methylsulfinyl)phenyl}-2,2-dimethyl-4-phenyl-3(2H)-furanone]
6 | 162 to 164 °C | CC1(C)OC(c2ccc(S(C)(=O)=O)cc2)=C(c2ccc(F)c(Cl)c2)C1=O [Example 2, 4-(3-Chloro-4-fluorophenyl)-2,2-dimethyl-5-{4-(methylsulfonyl)phenyl}-3(2H)-furanone]
7 | 118 to 120 °C | CC1(C)OC(c2ccc(S(C)(=O)=O)cc2)=C(c2ccc(OC(F)(F)F)cc2)C1=O [Example 7, 2,2-Dimethyl-5-{4-(methylsulfonyl)phenyl}-4-{4-(trifluoromethoxy)phenyl}-3(2H)-furanone]
8 | 81 to 82 °C | Cc1cc(C2=C(c3cccc(F)c3)C(=O)C(C)(C)O2)ccc1S(N)(=O)=O [Example 380, 5-{4-(Aminosulfonyl)-3-methylphenyl}-2,2-dimethyl-4-(3-fluorophenyl)-3(2H)-furanone]
9 | 178 to 179 °C | CC1(C)OC(c2ccc(S(C)(=O)=O)cc2)=C(c2ccc3c(c2)OCO3)C1=O [Example 8, 2,2-Dimethyl-4-(3,4-methylenedioxyphenyl)-5-{4-(methylsulfonyl)phenyl}-3(2H)-furanone]
10 | 178 to 179 °C | CC1(C)OC(c2ccc(S(N)(=O)=O)cc2)=C(c2ccc3c(c2)OCO3)C1=O [Example 27, 5-{4-(Aminosulfonyl)phenyl{-2,2-dimethyl-4-}3,4-(methylenedioxy)phenyl}-3(2H)-furanone]
11 | 204 to 206 °C | CC1(C)OC(c2ccc(S(C)(=O)=O)cc2)=C(c2cc3ccccc3s2)C1=O [Example 15, 4-(2-Benzo[b]thienyl)-2,2-dimethyl-5-{4-(methylsulfonyl)phenyl}-3(2H)-furanone]
12 | 140 to 141 °C | CC1(C)OC(c2ccc(S(C)(=O)=O)cc2)=C(c2cc3ccccc3o2)C1=O [Example 16, 4-(2-Benzo[b]furanyl)-2,2-dimethyl-5-{4-(methylsulfonyl)phenyl}-3(2H)-furanone]
13 | 188 to 189 °C | CCCC(=O)NS(=O)(=O)c1ccc(C2=C(c3cccc(F)c3)C(=O)C(C)(C)O2)cc1 [Example 183, 5-[4-{(n-Butyrylamino)sulfonyl}phenyl]-2,2-dimethyl-4-(3-fluorophenyl)-3(2H)-furanone]
14 | 139 to 140 °C | CCC1(CC)OC(c2ccc(S(C)(=O)=O)cc2)=C(c2ccccc2)C1=O [Example 47, 2,2-Diethyl-5-{4-(methylsulfonyl)phenyl}-4-phenyl-3(2H)-furanone]
15 | 167 to 168 °C | Cc1ccc(C2=C(c3ccc(S(C)(=O)=O)cc3)OC(C)(C)C2=O)cc1 [Example 1, 2,2-Dimethyl-4-(4methylphenyl)-5-{4-(methylsulfonyl)phenyl}-3(2H)-furanone]
16 | 143 to 145 °C | CC1(C)OC(c2ccc(S(N)(=O)=O)cc2)=C(c2cc3ccccc3o2)C1=O [Example 30]
17 | 103 to 105 °C | CCSc1ccc(C2=C(c3ccc(S(C)(=O)=O)cc3)OC(C)(C)C2=O)cc1 [Example 88, 2,2-dimethyl-4-{4-(ethylthio)phenyl}-5-{4-(methylsulfonyl)-phenyl}-3(2H)-furanone]
18 | 120 to 121 °C | C[S+]([O-])c1ccc(C2=C(c3ccccc3)C(=O)C(C)(C)O2)cc1Cl (stereo not drawn) [Example 363, 5-{3-Chloro-4-(methylsulfinyl)phenyl}-2,2-dimethyl-4-phenyl-3(2H)-furanone]
19 | 154 to 155 °C | Cc1cccc(C2=C(c3ccc(S(C)(=O)=O)cc3)OC3(CCCCC3)C2=O)c1 [Example 260, 3-(3-Methylphenyl)-2-{4-(methylsulfonyl)phenyl}-1-oxa-spiro[4,5]dec-2-en-4-one]
20 | 160 to 161 °C | CC1(C)OC(c2ccc(S(N)(=O)=O)cc2)=C(c2cccc(-c3ccccc3)c2)C1=O [Example 29, 5-{4-(Aminosulfonyl)phenyl}-4-(3-biphenyl)-2,2-dimethyl-3(2H)-furanone]
21 | 149 to 150 °C | C[S+]([O-])c1ccc(C2=C(c3ccccc3)C(=O)C(C)(C)O2)c(F)c1 (stereo not drawn) [Example 327, 2,2-Dimethyl-5-{2-fluoro-4-(methylsulfinyl)phenyl}-4-phenyl-3(2H)-furanone]
22 | 164 to 166 °C | CC1(C)OC(c2ccc(S(C)(=O)=O)cc2)=C(c2cccnc2)C1=O [Example 19, 2,2-Dimethyl-5-{4-(methylsulfonyl)phenyl}-4-(3-pyridyl)-3(2H)-furanone]
23 | 176 to 177 °C | CNS(=O)(=O)c1ccc(C2=C(c3cccc(F)c3)C(=O)C(C)(C)O2)cc1 [Example 184, 2,2-Dimethyl-5-{4-(N-methylaminosulfonyl)phenyl}-4-(3-fluorophenyl)-3(2H)-furanone]
24 | 194 to 195 °C | CC1(C)OC(c2ccc(S(C)(=O)=O)cc2)=C(c2cccc3ccccc23)C1=O [Example 13, 2,2-Dimethyl-5-{4-(methylsulfonyl)phenyl}-4-(1-naphthyl)-3(2H)-furanone]
25 | 137 to 141 °C | CSc1ccc(C2=C(c3ccc(S(C)(=O)=O)cc3)OC(C)(C)C2=O)cc1 [Example 72, 2,2-dimethyl-5-{4-(methylsulfonyl)phenyl}-4-{4-(methylthio)-phenyl}-3(2H)-furanone]
26 | 113 to 114 °C | CCC1(C)OC(c2ccc(S(N)(=O)=O)cc2)=C(c2ccc(OC)c(F)c2)C1=O (stereo not drawn) [Example 46, 5-{4-(Aminosulfonyl)phenyl}-2-ethyl-4-(3-fluoro-4-methoxyphenyl)-2-methyl-3(2H)-furanone]
27 | 106 °C | CSc1ccc(C2=C(c3cccc(F)c3)C(=O)C(C)(C)O2)cc1 [Example 166, 2,2-Dimethyl-4-(3-fluorophenyl)-5-{4-(methylthio)phenyl}-3(2H)-furanone]
28 | 122 to 123 °C | CSc1ccc(C2=C(c3cc(F)cc(F)c3)C(=O)C(C)(C)O2)cc1 [Example 173, 4-(3,5-difluorophenyl)-2,2-dimethyl-5-{4-(methylthio)-phenyl}-3(2H)-furanone]
29 | 120 to 121 °C | CC1(C)OC(c2ccc(S(N)(=O)=O)cc2)=C(c2cc3ccccc3s2)C1=O [Example 28]
30 | 245 to 257 °C | CC1(C)OC(c2ccc(S(C)(=O)=O)cc2)=C(c2ccc(S(C)(=O)=O)cc2)C1=O [Example 109, 2,2-Dimethyl-4,5-di{4-(methylsulfonyl)phenyl}-3(2H)-furanone]

Source: patent US6492416B1, “4,5-diaryl-3(2H)-furanone derivatives as cyclooxygenase-2 inhibitors” (Pacific Corporation, priority 1999, dated 2002)
